US20080311037A1, “Compounds which bind PSMA and uses thereof” (priority 2005, published 2008)

Assays:
PSMA [1] = molecular target: T1, PSMA (Homo sapiens, UniProt Q04609); experiment: Binding of 3H-ZJ24 to recombinant hPSMA, Scatchard analysis; parameters: Recombinant protein of the extracellular domain of PSMA can also exist in readily inter-convertible dimer-monomer forms; settings: 50 mM Tris buffer pH 7.5, 30 min, 37° C
Procedure: FIG. 2 is a graph showing binding to the monomeric and active dimeric form of soluble recombinant hPSMA of a ^3H (tritium) radiolabled (ZJ24), ^3H—(S)-2-[3-((R)-1-carboxy-2-methyl-sulfanyl-ethyl)-ureido]-pentanedioic acid or [^3H]MeCys-C(O)-Glu Parent PMSA ligand (6) maintains its specificity for PSMA by binding to recombinant hPSMA with a Kd of 2 nM based on Scatchard analysis. The binding assay was performed in 50 mM Tris buffer (pH 7.5). Briefly, 0.5 μg of recombinant PSMA was incubated with ^3H-ZJ24 in a total volume of 100 μL for 30 min at 37° C. The mixture was centrifuged through a 50K cutoff membrane. Then 50 μL of filtrate was added to 4 mL of cocktail and the radioactivity measured. […] After 60 min less than 10% of the compound found in kidney and plasma was degraded.
Target sequence in this assay (Q04609 44-750 limits assumed): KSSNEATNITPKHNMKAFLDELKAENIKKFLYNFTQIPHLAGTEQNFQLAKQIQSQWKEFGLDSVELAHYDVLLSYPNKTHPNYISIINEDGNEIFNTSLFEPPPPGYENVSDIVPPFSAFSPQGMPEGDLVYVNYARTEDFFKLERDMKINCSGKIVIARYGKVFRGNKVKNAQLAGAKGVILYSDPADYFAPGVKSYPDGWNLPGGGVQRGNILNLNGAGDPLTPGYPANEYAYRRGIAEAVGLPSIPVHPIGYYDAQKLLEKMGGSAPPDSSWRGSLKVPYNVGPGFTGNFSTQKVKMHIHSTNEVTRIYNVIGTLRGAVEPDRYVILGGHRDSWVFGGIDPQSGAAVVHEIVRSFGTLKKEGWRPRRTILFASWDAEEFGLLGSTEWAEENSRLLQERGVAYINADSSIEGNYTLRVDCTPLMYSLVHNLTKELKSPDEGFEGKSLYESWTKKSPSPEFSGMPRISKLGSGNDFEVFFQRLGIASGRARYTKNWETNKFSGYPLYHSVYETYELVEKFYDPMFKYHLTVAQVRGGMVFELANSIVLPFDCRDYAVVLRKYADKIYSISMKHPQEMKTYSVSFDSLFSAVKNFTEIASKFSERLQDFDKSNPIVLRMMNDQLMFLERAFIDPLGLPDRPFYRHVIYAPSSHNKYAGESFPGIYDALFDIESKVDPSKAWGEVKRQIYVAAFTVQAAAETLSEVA

PSMA [2] = molecular target: T1, PSMA; experiment: Inhibition of 3H-ZJ24 binding to cell membranes; parameters: host or cells: PSMA positive membrane preparations
Procedure: (§1) Described herein are new compounds, which can activate RNase L in PSMA expressing cells. 2-5A was targeted for delivery to PSMA by linking it with a ligand to PSMA. We modified ZJ24, a low molecular weight ligand for PSMA, with 2-5A through a 4-(N-maleimidomethyl)cyclohexane-1-amidate linkage to generate RBI 1033. The inhibitory activity of RBI 1033 to the folate hydrolase activity of PSMA was measured. The PSMA positive membrane preparations were incubated with different concentrations of ZJ24, RBI 1033 and RBI 1032 (2-5A with linker only) together with the substrate methotrexate diglutamate (MTXGlu2) for 1 h. The amount of methotrexate and MTXGlu2 were then determined by HPLC. […] Binding studies were performed by incubating membranes with different concentrations of drugs in the presence of 12 nM of ^3H-ZJ24 for 30 min. […] These studies indicate that RBI 1033 has excellent binding properties to PSMA, which can enable it to serve as a vector for imaging or therapy.
Target sequence in this assay (Q04609 whole entry, the tested form may be a part): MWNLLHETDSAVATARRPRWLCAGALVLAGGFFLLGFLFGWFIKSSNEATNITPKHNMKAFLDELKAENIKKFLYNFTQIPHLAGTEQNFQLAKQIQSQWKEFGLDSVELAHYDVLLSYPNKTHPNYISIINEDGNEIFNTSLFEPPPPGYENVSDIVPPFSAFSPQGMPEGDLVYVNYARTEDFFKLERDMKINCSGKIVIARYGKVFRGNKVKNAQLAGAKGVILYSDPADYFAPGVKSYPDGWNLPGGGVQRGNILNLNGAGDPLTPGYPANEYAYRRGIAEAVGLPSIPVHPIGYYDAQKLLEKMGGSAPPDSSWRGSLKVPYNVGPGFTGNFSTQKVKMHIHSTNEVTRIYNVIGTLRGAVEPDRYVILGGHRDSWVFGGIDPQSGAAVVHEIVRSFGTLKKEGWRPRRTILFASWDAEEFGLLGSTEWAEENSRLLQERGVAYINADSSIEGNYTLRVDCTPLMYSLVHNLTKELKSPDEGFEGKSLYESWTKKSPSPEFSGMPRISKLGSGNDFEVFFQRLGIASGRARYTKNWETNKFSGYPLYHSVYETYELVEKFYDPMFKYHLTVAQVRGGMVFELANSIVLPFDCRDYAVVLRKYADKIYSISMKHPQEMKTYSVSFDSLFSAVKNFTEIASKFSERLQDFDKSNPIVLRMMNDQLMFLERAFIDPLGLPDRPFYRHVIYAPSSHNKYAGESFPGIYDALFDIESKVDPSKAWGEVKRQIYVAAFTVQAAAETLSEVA

PSMA [3] = molecular target: T1, PSMA; experiment: Inhibition of folate hydrolase activity of PSMA, PSMA positive membrane preparations, substrate MTXGlu2, HPLC; assay type: biochemical; parameters: host or cells: PSMA positive membrane preparations
Procedure: as §1
Target sequence in this assay (Q04609 whole entry, the tested form may be a part): as above

PSMA [4] = molecular target: T1, PSMA; experiment: PSMA activity assay, hydrolysis of polyglutamate substrate MTXGlu2; assay type: biochemical; parameters: Recombinant protein of the extracellular domain of PSMA can also exist in readily inter-convertible dimer-monomer forms; settings: 5 ng recombinant PSMA, MTXGlu2 5 nMol, 37° C, 1 h; read-out: EC50 for inhibition of PSMA activity
Procedure: The activity assay determines the ability of hPSMA to cleave/hydrolyze a polyglutamte substrate under the presence of a ligand at different concentrations. Briefly, recombinant PSMA (5 ng) was incubated with ZJ24 or disclosed 2-5A ligand. After 30 min the polyglutamate substrate MTXGlu2 (5 nMol) was added and the mixture was incubated at 37° C. for 1 h. The reaction was stopped by the addition of 100 μL of 50 mM Na2HPO4. The amount of MTX formed was analyzed using a Thermo Hypersil PRISM RP column (50×4.6 mm, flow rate 1.0 mL/min) at 313 nm.
Target sequence in this assay (Q04609 44-750 limits assumed): as the sequence (Q04609 44-750 limits assumed) above

[5] = molecular target: T2, active dimeric form of soluble recombinant hPSMA (Homo sapiens, UniProt Q04609); experiment: Competition binding assay with 3H-ZJ24 on recombinant PSMA; settings: 0.5 μg recombinant PSMA, 12 nM 3H-ZJ24, 30 min, 37° C
T2 construct: Recombinant protein of the extracellular domain of PSMA can also exist in readily inter-convertible dimer-monomer forms
T2 sequence (Q04609 44-750 limits assumed): as above
Procedure: Binding and activity of the disclosed 2-5A ligand towards the active dimeric form of soluble recombinant hPSMA was compared with methylated parent ligand Cys-C(O)-Glu ZJ24. The binding assay examines the ability of a novel compound to compete for binding with radio-labeled ZJ24. Different final concentrations of the inhibitor can be incubated in the presence of ZJ24 and the concentration required to inhibit 50% of binding is determined (the EC50). Briefly, 0.5 μg of recombinant PSMA was incubated with the ligand to be tested at different concentrations and 12 nM of ^3H-ZJ24 in a total volume of 100 μL for 30 min at 37° C. The mixture was centrifuged through a 50 kDa cut-off membrane. Finally, 4 mL of biodegradable counting cocktail Bio-Safe II was added, and radioactivity was counted.

For `O=C(O)CCC(NC(=O)NC(CS)C(=O)O)C(=O)O` (stereo not shown) [Parent PMSA ligand (6)], the Kd (PSMA [1]) was 2 nM.

With `Nc1ncnc2c1ncn2[C@@H]1O[C@H](COP(O)(O)=S)[C@@H](O)[C@H]1OP(O)(=S)OC[C@H]1O[C@@H](n2cnc3c(N)ncnc32)[C@H](OP(O)(=S)OC[C@H]2O[C@@H](n3cnc4c(N)ncnc43)[C@H](OP(O)(=S)OCCCNC(=O)C3CCC(CN4C(=O)CC(SC[C@H](NC(=O)N[C@@H](CCC(=O)O)C(=O)O)C(=O)O)C4=O)CC3)[C@@H]2O)[C@@H]1O` (stereo partly shown) [RBI 1033] the “times higher affinity to PSMA than ZJ24” value (PSMA [2]; compared to ZJ24) was “more than 10 times” and the “times more potent than ZJ24 as folate hydrolase inhibitor” value (PSMA [3]; compared to ZJ24) was “more than 10 times”.

Work on “(S)-2-[3-((R)-1-carboxy-2-methyl-sulfanyl-ethyl)-ureido]-pentanedioic acid [ZJ24]” yielded an IC50 (PSMA [2]; 12 nM 3H-ZJ24, 30 min, read-out: IC50 for inhibition of binding of 3H-ZJ24 to the cell membrane) of 15.3 nM, an IC50 (PSMA [3]; PSMA positive membrane preparations, MTXGlu2 substrate, 1 h, read-out: IC50 as folate hydrolase inhibitor) of 53.9 nM and an EC50 (PSMA [4]) of 56.7 nM. The EC50 [5] was 15.3 nM.
